Results from US10077261B2, “Imidazolin-5-one derivative useful as FASN inhibitors for the treatment of cancer” (Janssen Pharmaceutica NV, priority 2012, dated 2018).

How the values were obtained:
A2780 ovarian cells [1] = experiment: A2780 ovarian cell proliferation assay in lipid reduced medium, with palmitate (MTT); format: cell-based; conditions: Homo sapiens, A2780, 96 h; read-out: pIC50 A2780 Ovarian Cell, With Palmitate (converted)
Summary of the method: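 Seeded cells were switched next day to lipid-reduced serum, exposed to compound and 25 μM palmitate complexed with fatty-acid-free BSA, and incubated 96 h. Proliferation was then determined by MTT absorbance at 544 nm, with a best-fit curve of signal against concentration.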

A2780 ovarian cells [2] = experiment: A2780 ovarian cell proliferation assay in lipid reduced medium, without palmitate (MTT); format: cell-based; conditions: Homo sapiens, A2780, 96 h; read-out: pIC50 A2780 Ovarian Cell, Without Palmitate (converted)
[3] = molecular target: T1, hFASN enzyme (full length) (Homo sapiens, UniProt P49327); experiment: Fatty Acid Synthase (FASN) inhibition scintillation proximity assay; format: biochemical; conditions: for inhibition at 10 µM: read-out: Human FASN % inhibition @ 10 μM, 10 μM test compound; for IC50: read-out: Human FASN pIC50 (converted)
T1 construct: 10 μL hFASN enzyme (full length, 300 ng, purified in house); made in house
Summary of the method: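 Full-length in-house purified enzyme (300 ng) was tested in 100 mM KH2PO4 pH 7.5, 1 mM DTT with ³H-acetyl-CoA and malonyl-CoA as substrates; compounds ranged 0.01–30 μM. Reactions were stopped with streptavidin imaging beads, read by LEADseeker at 610 nm, and fitted to a 4-parameter logistic curve.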

T1 sequence (P49327 whole entry): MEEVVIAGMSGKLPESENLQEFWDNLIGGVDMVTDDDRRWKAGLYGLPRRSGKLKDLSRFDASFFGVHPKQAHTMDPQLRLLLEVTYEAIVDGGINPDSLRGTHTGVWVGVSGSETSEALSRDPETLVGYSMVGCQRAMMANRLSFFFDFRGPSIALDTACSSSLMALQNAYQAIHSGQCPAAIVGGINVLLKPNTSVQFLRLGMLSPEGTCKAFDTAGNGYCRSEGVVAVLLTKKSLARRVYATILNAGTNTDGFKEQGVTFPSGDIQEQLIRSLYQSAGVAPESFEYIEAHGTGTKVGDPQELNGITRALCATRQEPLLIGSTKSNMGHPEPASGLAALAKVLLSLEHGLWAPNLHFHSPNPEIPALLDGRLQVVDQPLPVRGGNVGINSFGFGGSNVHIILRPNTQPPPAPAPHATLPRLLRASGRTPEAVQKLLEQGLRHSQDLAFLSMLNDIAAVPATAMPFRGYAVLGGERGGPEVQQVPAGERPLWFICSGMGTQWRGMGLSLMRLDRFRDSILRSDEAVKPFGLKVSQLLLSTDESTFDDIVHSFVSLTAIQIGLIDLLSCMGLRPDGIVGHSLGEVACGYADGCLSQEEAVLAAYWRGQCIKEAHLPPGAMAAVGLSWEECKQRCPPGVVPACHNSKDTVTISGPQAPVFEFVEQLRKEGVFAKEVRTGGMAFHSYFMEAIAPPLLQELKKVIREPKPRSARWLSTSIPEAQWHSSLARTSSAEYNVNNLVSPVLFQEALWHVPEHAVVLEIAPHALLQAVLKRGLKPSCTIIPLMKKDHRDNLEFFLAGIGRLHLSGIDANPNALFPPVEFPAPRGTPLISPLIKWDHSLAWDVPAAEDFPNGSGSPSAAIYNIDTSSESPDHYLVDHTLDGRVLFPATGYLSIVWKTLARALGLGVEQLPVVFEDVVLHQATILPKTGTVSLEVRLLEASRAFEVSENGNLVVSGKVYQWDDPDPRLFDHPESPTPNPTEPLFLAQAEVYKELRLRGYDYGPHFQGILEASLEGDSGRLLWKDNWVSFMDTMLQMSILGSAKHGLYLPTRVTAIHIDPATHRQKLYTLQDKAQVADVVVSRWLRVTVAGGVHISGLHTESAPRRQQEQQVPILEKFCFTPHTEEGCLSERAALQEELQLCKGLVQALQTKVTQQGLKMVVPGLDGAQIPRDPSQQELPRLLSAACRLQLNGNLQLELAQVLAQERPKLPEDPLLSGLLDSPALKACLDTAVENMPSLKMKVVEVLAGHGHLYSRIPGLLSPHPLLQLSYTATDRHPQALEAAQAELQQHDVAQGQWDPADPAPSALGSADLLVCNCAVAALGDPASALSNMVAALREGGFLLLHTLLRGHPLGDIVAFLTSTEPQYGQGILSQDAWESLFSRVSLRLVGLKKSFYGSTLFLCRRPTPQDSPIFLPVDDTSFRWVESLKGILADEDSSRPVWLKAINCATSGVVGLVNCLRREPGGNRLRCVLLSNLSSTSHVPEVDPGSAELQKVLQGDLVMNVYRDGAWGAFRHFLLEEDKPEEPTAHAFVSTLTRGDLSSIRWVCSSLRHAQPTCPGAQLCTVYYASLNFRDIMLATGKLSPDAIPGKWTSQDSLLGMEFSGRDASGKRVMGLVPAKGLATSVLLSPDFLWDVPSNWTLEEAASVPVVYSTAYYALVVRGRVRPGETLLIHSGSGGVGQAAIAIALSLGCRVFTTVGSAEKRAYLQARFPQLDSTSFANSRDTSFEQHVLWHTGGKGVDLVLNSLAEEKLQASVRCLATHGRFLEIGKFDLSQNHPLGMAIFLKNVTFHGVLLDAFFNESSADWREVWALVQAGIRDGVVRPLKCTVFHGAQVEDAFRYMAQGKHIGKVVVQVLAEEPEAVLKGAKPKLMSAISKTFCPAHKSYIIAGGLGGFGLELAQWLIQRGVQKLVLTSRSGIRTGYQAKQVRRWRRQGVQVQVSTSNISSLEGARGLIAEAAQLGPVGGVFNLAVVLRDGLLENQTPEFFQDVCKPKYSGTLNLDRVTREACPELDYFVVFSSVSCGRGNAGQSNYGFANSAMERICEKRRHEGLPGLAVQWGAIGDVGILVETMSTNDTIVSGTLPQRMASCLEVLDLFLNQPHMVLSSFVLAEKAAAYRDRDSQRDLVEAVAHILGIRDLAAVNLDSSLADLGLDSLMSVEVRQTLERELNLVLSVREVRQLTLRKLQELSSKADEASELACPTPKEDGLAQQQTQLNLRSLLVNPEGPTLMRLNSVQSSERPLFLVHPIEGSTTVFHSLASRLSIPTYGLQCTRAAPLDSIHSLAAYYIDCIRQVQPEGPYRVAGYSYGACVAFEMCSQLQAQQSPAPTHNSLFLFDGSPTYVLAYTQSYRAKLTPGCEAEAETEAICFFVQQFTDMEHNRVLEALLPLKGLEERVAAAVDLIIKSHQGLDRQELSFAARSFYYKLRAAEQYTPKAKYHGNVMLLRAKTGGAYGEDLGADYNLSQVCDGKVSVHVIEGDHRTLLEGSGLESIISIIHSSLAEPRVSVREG

SMILES	IC50 (A2780 ovarian cells [1]) [µM]	IC50 (A2780 ovarian cells [2]) [µM]	inhibition at 10 µM [3] [%]	IC50 [3] [µM]
O=C(C1CC1)N1CC(CN2C(=O)C3(CC3)N=C2c2ccc(-c3cnc4c(F)cccc4c3)cc2)C1 [compound 560, 6-{[1-(Cyclopropylcarbonyl)azetidin-3-yl]methyl}-5-[4-(8-fluoroquinolin-3-yl)phenyl]-4,6-diazaspiro[2.4]hept-4-en-7-one]	> 10	~7.59	68	3.72
Cc1ccc2ccc(-c3ccc(C4=NC5(CC5)C(=O)N4CC4CN(C(=O)C5CC5)C4)cc3)c(F)c2n1 [compound 561, 6-{[1-(Cyclopropylcarbonyl)azetidin-3-yl]methyl}-5-[4-(8-fluoro-2-methylquinolin-7-yl)phenyl]-4,6-diazaspiro[2.4]hept-4-en-7-one]	> 10	> 10	56	~7.24
O=C(C1CC1)N1CC(CN2C(=O)C3(CC3)N=C2c2ccc(-c3ccc4c(Cl)ccnc4c3)cc2)C1 [compound 563, 5-[4-(4-Chloroquinolin-7-yl)phenyl]-6-{[1-(cyclopropylcarbonyl)azetidin-3-yl]methyl}-4,6-diazaspiro[2.4]hept-4-en-7-one]	> 10	3.16	88	0.631
Cc1cc(-c2cccc(NC(=O)C3CC3)c2)ccc1C1=NC2(CC2)C(=O)N1CC1CN(C(=O)C2CC2)C1 [compound 571, N-[4′-(6-{[1-(Cyclopropylcarbonyl)azetidin-3-yl}methyl]-7-oxo-4,6-diazaspiro[2.4]hept-4-en-5-yl)-3′-methylbiphenyl-3-yl]cyclopropanecarboxamide]	> 10	0.977	79	1.38
Cn1nccc1-c1ccc(-c2ccc(C3=NC4(CC4)C(=O)N3CC3CN(C(=O)C4(O)CC4)C3)c(F)c2)cc1 [compound 577, 5-[3-Fluoro-4′-(1-methyl-1H-pyrazol-5-yl)biphenyl-4-yl]-6-({1-[(1-hydroxycyclopropyl)carbonyl]azetidin-3-yl}methyl)-4,6-diazaspiro[2.4]hept-4-en-7-one]	> 10	2.45	67	2.34
O=C(O)c1ccc2ccc(-c3ccc(C4=NC5(CC5)C(=O)N4CC4CN(C(=O)C5CC5)C4)cc3)cc2n1 [compound 583, 7-[4-(6-{[1-(Cyclopropylcarbonyl)azetidin-3-yl]methyl}-7-oxo-4,6-diazaspiro[2.4]hept-4-en-5-yl)phenyl]quinoline-2-carboxylic acid]	> 10	2.57	74	3.98
Cc1cc(-c2ccc(C3(C#N)CC3)cc2F)ccc1C1=NC2(CC2)C(=O)N1CC1CN(C(=O)C2(C)CC2)C1 [compound 593]	9.55	6.76	56	7.08
Cc1cc(-c2ccc3ccc(Br)cc3n2)ccc1C1=NC2(CC2)C(=O)N1CC1CN(C(=O)C2(C)CC2)C1 [compound 595, 5-[4-(7-Bromoquinolin-2-yl)-2-methylphenyl]-6-({1-[(1-methylcyclopropyl)carbonyl]azetidin-3-yl}methyl)-4,6-diazaspiro[2.4]hept-4-en-7-one]	6.61	3.24	83	1.35
Cc1cc(Cl)c2ccc(-c3ccc(C4=NC5(CC5)C(=O)N4CC4CN(C(=O)C5(C)CC5)C4)c(C)c3)cc2n1 [compound 597, 5-[4-(4-Chloro-2-methylquinolin-7-yl)-2-methylphenyl]-6-({1-[(1-methylcyclopropyl)carbonyl]azetidin-3-yl}methyl)-4,6-diazaspiro[2.4]hept-4-en-7-one]	4.37	3.63	65	~4.27
Cc1ccc2c(-c3ccc(C4=NC5(CC5)C(=O)N4CC4CN(C(=O)C5(C)CC5)C4)c(C)c3)cccc2n1 [compound 603, 6-({1-[(1-Methylcyclopropyl)carbonyl]azetidin-3-yl}methyl)-5-[2-methyl-4-(2-methylquinolin-5-yl)phenyl]-4,6-diazaspiro[2.4]hept-4-en-7-one]	> 10	~3.31	87	1.15

Now from value to molecule:

IC50 (A2780 ovarian cells [1]) [µM]	IC50 (A2780 ovarian cells [2]) [µM]	inhibition at 10 µM [3] [%]	IC50 [3] [µM]	SMILES
> 10	0.525	97	0.263	Cc1cc(-c2ccc3c(cnn3C)c2)ccc1C1=NC2(CC2)C(=O)N1CC1CN(C(=O)C2(N)CC2)C1 [compound 564, 6-({1-[(1-Aminocyclopropyl)carbonyl]azetidin-3-yl}methyl)-5-[2-methyl-4-(1-methyl-1H-indazol-5-yl)phenyl]-4,6-diazaspiro[2.4]hept-4-en-7-one]
2.4	0.0468	89	0.129	Cn1cc(CCO)c2cc(-c3ccc(C4=NC5(CC5)C(=O)N4CC4CN(C(=O)C5CC5)C4)c(F)c3)ccc21 [compound 568, 6-{[1-(Cyclopropylcarbonyl)azetidin-3-yl]methyl}-5-{2-fluoro-4-[3-(2-hydroxyethyl)-1-methyl-1H-indol-5-yl]phenyl}-4,6-diazaspiro[2.4]hept-4-en-7-one]
2.19	0.204	86	0.209	Cc1cc2cc(-c3ccc(C4=NC5(CC5)C(=O)N4CC4CN(C(=O)C5CC5)C4)c(F)c3)ccc2n1C [compound 569, 6-{[1-(Cyclopropylcarbonyl)azetidin-3-yl]methyl}-5-[4-(1,2-dimethyl-1H-indol-5-yl)-2-fluorophenyl]-4,6-diazaspiro[2.4]hept-4-en-7-one]
> 10	~5.25	65	4.17	Cc1cc(C)c2ccc(-c3ccc(C4=NC5(CC5)C(=O)N4CC4CN(C(=O)C5CC5)C4)cc3)cc2n1 [compound 570, 6-{[1-(Cyclopropylcarbonyl)azetidin-3-yl]methyl}-5-[4-(2,4-dimetrhylquinolin-7-yl)phenyl]-4,6-diazaspiro[2.4]hept-4-en-7-one]
> 10	0.0525	87	0.135	Cn1ncc2cc(-c3ccc(C4=NC5(CC5)C(=O)N4CC4CN(C(=O)C5(O)CC5)C4)c(F)c3)ccc21 [compound 572, 5-[2-Fluoro-4-(1-methyl-1H-indazol-5-yl)phenyl]-6-({1-[(1-hydroxycyclopropyl)carbonyl]azetidin-3-yl}methyl)-4,6-diazaspiro[2.4]hept-4-en-7-one]
1.38	0.0537	88	0.166	Cc1cn(C)c2ccc(-c3ccc(C4=NC5(CC5)C(=O)N4CC4CN(C(=O)C5CC5)C4)c(F)c3)cc12 [compound 573, 6-{[1-(Cyclopropylcarbonyl)azetidin-3-yl]methyl}-5-[4-(1,3-dimethyl-1H-indol-5-yl)-2-fluorophenyl]-4,6-diazaspiro[2.4]hept-4-en-7-one]
5.75	0.871	82	0.813	Cc1ccc2ccc(-c3ccc(C4=NC5(CC5)C(=O)N4CC4CN(C(=O)C5CC5)C4)c(F)c3)cc2n1 [compound 574, 6-{[1-(Cyclopropylcarbonyl)azetidin-3-yl]methyl}-5-[2-fluoro-4-(2-methylquinolin-7-yl)phenyl]-4,6-diazaspiro[2.4]hept-4-en-7-one]
> 10	~7.94	52	8.13	Cc1ccc2c(-c3ccc(C4=NC5(CC5)C(=O)N4CC4CN(C(=O)C5CC5)C4)c(F)c3)cccc2n1 [compound 575, 6-{[1-(Cyclopropylcarbonyl)azetidin-3-yl]methyl}-5-[2-fluoro-4-(2-methylquinolin-5-yl)phenyl]-4,6-diazaspiro[2.4]hept-4-en-7-one]
> 10	~8.51	70	3.31	Cc1cc(-c2ccc3nn(C)c(CO)c3c2)ccc1C1=NC2(CC2)C(=O)N1CC1CN(C(=O)C2CC2)C1 [compound 587, 6-{[1-(Cyclopropylcarbonyl)azetidin-3-yl]methyl}-5-{4-[3-(hydroxymethyl)-2-methyl-2H-indazol-5-yl]-2-methylphenyl}-4,6-diazaspiro[2.4]hept-4-en-7-one]
> 10	5.62	52	9.55	COCc1c2cc(-c3ccc(C4=NC5(CC5)C(=O)N4CC4CN(C(=O)C5CC5)C4)c(C)c3)ccc2nn1C [compound 589, 6-{[1-(Cyclopropylcarbonyl)azetidin-3-yl]methyl}-5-{4-[3-(methoxymethyl)-2-methyl-2H-indazol-5-yl]-2-methylphenyl}-4,6-diazaspiro[2.4]hept-4-en-7-one]
> 10	3.31	80	1.74	Cc1cc(-c2ccc3c(Cl)nn(C)c3c2)ccc1C1=NC2(CC2)C(=O)N1CC1CN(C(=O)C2CC2)C1 [compound 590, 5-[4-(3-Chloro-1-methyl-1H-indazol-6-yl)-2-methylphenyl]-6-{[1-(cyclopropylcarbonyl)azetidin-3-yl]methyl}-4,6-diazaspiro[2.4]hept-4-en-7-one]
> 10	5.25	70	2.95	O=C(C1CC1)N1CC(CN2C(=O)C3(CC3)N=C2c2ccc(-c3cc(Cl)c4cn[nH]c4c3)cc2F)C1 [compound 592, 5-[4-(4-Chloro-1H-indazol-6-yl)-2-fluorophenyl]-6-{[1-(cyclopropylcarbonyl)azetidin-3-yl]methyl}-4,6-diazaspiro[2.4]hept-4-en-7-one]
